The numbers were not newly measured in patent US12026655B2, “Systems and methods for post-harvest crop quality management” (priority 2017, dated 2024), which cites them from elsewhere.

SMILES strings stand for the structures. Where two headings read alike, the source gives them in different places.

Data set [1] relates to Rhyzopertha dominica. The settings on record: e(x, t)>1 means at least 99.9% of the insect population killed.
Data set [2] deals with resistant cigarette beetle.
In data set [3] the test system is tobacco moth and susceptible cigarette beetle.
The mark [4] stands for this setting: tobacco temperature 16-20 °C (61-68 °F), 300 ppm phosphine at the bale/case centre.

On to `P` [phosphine], for which the “empirical constant a1 of the extinction indicator function e(x, t)” value in data set [1] is reported as 4.04. Moreover, the “empirical constant a2 of the extinction indicator function e(x, t)” value in data set [1] was 0.6105. The “Minimum Exposure Time to achieve 100% control of all development stages” value in data set [2] (setting [4]) was 12 days; in data set [2] (tobacco temperature 20-25 °C (68-77 °F), 300 ppm phosphine at the bale/case centre), 12 days; in data set [2] (tobacco temperature 20-25 °C (68-77 °F), 700 ppm phosphine at the bale/case centre) it was 10 days; in data set [2] (tobacco temperature >25 °C (>77 °F), 300 ppm phosphine at the bale/case centre), 12 days; in data set [2] (tobacco temperature >25 °C (>77 °F), 600 ppm phosphine at the bale/case centre), 6 days; in data set [3] (setting [4]) it was 6 days. Besides, the “Minimum Exposure Time to achieve 100% control of all development stages” value in data set [3] (tobacco temperature >20 °C (>68 °F), 200 ppm phosphine at the bale/case centre) was 4 days.
